Measured values from US6638919B2, “Antiviral purine derivatives” (University College Cardiff Consultants Limited, priority 2001, dated 2003).
Structures can show the parent of a compound that is named as a salt.

Columns and labels:
Format in all cases: cell-based
HIV-1 = assay: Inhibition of HIV-1 giant cell formation in CEM cells; conditions: Table III; EC50 for inhibition of HIV1 in CEM cells; read-out: HIV1 CBM
Experimental: (§1) Then 100 μL of the infected cell suspension was transferred to microtiter plate wells and mixed with 100 μL of the appropriate dilutions of the test compounds.
HIV 1 CEM: EC50 in μM for inhibition of HIV1 in CEM cells

HIV-2 = assay: Inhibition of HIV-2 giant cell formation in CEM cells; conditions: Table III; EC50 for inhibition of HIV-2 in CEM cells; read-out: HIV2 CBM
Experimental: as §1
HIV1 CEM: EC50 in μM for inhibition of […] in CEM cells.
HIV2 CEM: EC50 in μM for inhibition of HIV-2 in CEM cells

CEM cells = assay: Toxicity to mock-infected CEM cells (CC50); conditions: Table III; toxicity to CEM cells; read-out: CC50 CEN
Experimental: as §1
CC50 CEM: CC50 in μM for toxicity to CEM cells.
CC50 CEM: CC50 μM for toxicity to CEM cells

MSV [1] = assay: Inhibition of MSV; conditions: Table III; inhibition of MSV; read-out: EC50 MSV
Experimental: EC50 MSV: EC50 μM for inhibition of MSV

MSV [2] = assay: Minimum cytotoxic concentration in MSV assay; parameters: unit not given here; conditions: Table III
Source text: MCC MSV: minimum cytotoxic concentration in MSV essay.

CCOC(=O)C[C@H](NP(=O)(OC[C@@H]1C=C[C@H](n2cnc3c(NC4CC4)nc(N)nc32)C1)Oc1ccccc1)C(=O)OCC (stereo partly drawn) [Compound 1714, (1S,4R)-4-(2-amino-6-cyclopropylamino-9H-purin-9-yl)-2-cyclopeutene-1-methanol O-(phenyldiethoxy-L-aspartyl phosphate)]
EC50 (HIV-1): 550 nM
EC50 (HIV-2): 2100 nM
CC50 (CEM cells): 23100 nM
EC50 (MSV [1]): 7180 nM
MCCMSV (MSV [2]): >20

COC(=O)[C@H](CC1CCCCC1)NP(=O)(OC[C@@H]1C=C[C@H](n2cnc3c(NC4CC4)nc(N)nc32)C1)Oc1ccccc1 (stereo partly drawn) [Compound 1709, (1 S,4R)-4-(2-amino-6-cyclopropylamino-9H-purin-9-yl)-2-cyclopentene-1-methanol O-Phenyl-(methoxy-3-cyclohexane-L-alaninyl)-phosphate]
EC50 (HIV-1): 1200 nM
EC50 (HIV-2): 2000 nM
CC50 (CEM cells): 16000 nM
EC50 (MSV [1]): 1720 nM
MCCMSV (MSV [2]): >4

C[C@H](NP(=O)(O)OC[C@@H]1C=C[C@H](n2cnc3c(NC4CC4)nc(N)nc32)C1)C(=O)O [Compound 1540, (1S,4R)-4-(2-amino-6-cyclopropylamino-9H-purin-9-yl)-2-cyclopentene-1-methanol O-(L-alaninyl)-phosphate diammonium salt]
EC50 (HIV-1): 1200 nM
EC50 (HIV-2): 950 nM
CC50 (CEM cells): 115000 nM

COC(=O)[C@H](C)NP(=O)(OC[C@@H]1C=C[C@H](n2cnc3c(NC4CC4)nc(N)nc32)C1)Oc1ccc(Br)cc1 (stereo partly drawn) [Compound 1710, (1S,4R)-4-(2-amino-6-cyclopropylamino-9H-purin-9-yl)-2-cyclopentene-1-methanol O-[4-bromophenyl-(methoxy-L-alaninyl)]-phosphate]
EC50 (HIV-1): 5.5 nM
EC50 (HIV-2): 49 nM
CC50 (CEM cells): 5780 nM
EC50 (MSV [1]): 510 nM
MCCMSV (MSV [2]): >0.8

C[C@H](NP(=O)(OC[C@@H]1C=C[C@H](n2cnc3c(NC4CC4)nc(N)nc32)C1)Oc1ccccc1)C(=O)OCC1CCCCC1 (stereo partly drawn) [Compound 1708, (1S,4R)-4-(2-amino-6-cyclopropylamino-9H-purin-9-yl)-2cyclopentene-1-methanol O-Phenyl-(cyclobexane-methoxy-L-alaninyl)-phosphate]
EC50 (HIV-1): 150 nM
EC50 (HIV-2): 160 nM
CC50 (CEM cells): 15100 nM
EC50 (MSV [1]): 1300 nM
MCCMSV (MSV [2]): >4

CC(C)CCOC(=O)C(C)NP(=O)(OC[C@@H]1C=C[C@H](n2cnc3c(NC4CC4)nc(N)nc32)C1)Oc1ccccc1 (stereo partly drawn) [Compound 1674, (1S,4R)-4-(2-amino-6-cyclopropylamino-9H-purin-9-yl)-2-cyclopentene-1-methanol O-(phenyl (3-methylbutyl)oxyalaninyl phosphate)]
EC50 (HIV-2): 250 nM
CC50 (CEM cells): 10700 nM
EC50 (MSV [1]): 2040 nM
MCCMSV (MSV [2]): >4

CCCCCOC(=O)[C@H](C)NP(=O)(OC[C@@H]1C=C[C@H](n2cnc3c(NC4CC4)nc(N)nc32)C1)Oc1ccccc1 (stereo partly drawn) [Compound 1706, (1S,4R)-4-(2-amino-6-cyclopropylamino-9H-purin-9-yl)-2-cyclopentene-1-methanol 0-Phenyl-(n-pentyloxy-L-alaninyl)-phosphate]
EC50 (HIV-1): 65 nM
EC50 (HIV-2): 80 nM
CC50 (CEM cells): 16400 nM
EC50 (MSV [1]): 1450 nM
MCCMSV (MSV [2]): >4

COC(=O)CNP(=O)(OC[C@@H]1C=C[C@H](n2cnc3c(NC4CC4)nc(N)nc32)C1)Oc1ccccc1 (stereo partly drawn) [Compound 1588, (1 S,4R)-4-(2-amino-6-cyclopropylamino-9H-purin-9-yl)-2-cyclopentene-1-methanol O-[phenyl-(methoxy-glycinyl)]-phosphate]
EC50 (HIV-1): 1780 nM
EC50 (HIV-2): 2000 nM
CC50 (CEM cells): ≥ 100000 nM

(1S,4R)-4-(2-amino6cyclopropyl-2 -amino-9H-purin-9-yl)-2-cyclopentene-1-methanol O-((P-(2 2-dimethoxy-L-propionic acid methyl ester)-phenyl)methoxyalaninyl phosphate) [Compound 1671]
EC50 (HIV-1): 100 nM
EC50 (HIV-2): 120 nM
CC50 (CEM cells): 12100 nM
EC50 (MSV [1]): 9200 nM
MCCMSV (MSV [2]): >20

CC(C)OC(=O)[C@H](C)NP(=O)(OC[C@@H]1C=C[C@H](n2cnc3c(NC4CC4)nc(N)nc32)C1)Oc1ccccc1 (stereo partly drawn) [Compound 1661, (1S,4R)-4-(2-amino-6-cyclopropylamino-9H-purin-9-yl)-2-cyclopentene-1-methanol O-Phenyl-(i-propoxy-L-alaninyl)-phosphate]
EC50 (HIV-1): 500 nM
EC50 (HIV-2): 850 nM
CC50 (CEM cells): 9180 nM
EC50 (MSV [1]): 2750 nM
MCCMSV (MSV [2]): ≧20

C[C@H](NP(=O)(OC[C@@H]1C=C[C@H](n2cnc3c(NC4CC4)nc(N)nc32)C1)Oc1ccccc1)C(=O)OC1CCCCC1 (stereo partly drawn) [Compound 1707, (1S,4R)-4-(2-amino-6-cyclopropylamino-9H-purin-9-yl)-2-cyclopeniene-1-methanol O-Phenyl-(c-hexyloxy-L-alaninyl)-phosphate]
EC50 (HIV-1): 330 nM
EC50 (HIV-2): 250 nM
CC50 (CEM cells): 10200 nM
EC50 (MSV [1]): 2840 nM
MCCMSV (MSV [2]): >4

CCCCOC(=O)[C@H](C)NP(=O)(OC[C@@H]1C=C[C@H](n2cnc3c(NC4CC4)nc(N)nc32)C1)Oc1ccccc1 (stereo partly drawn) [Compound 1647, (1S,4R)-4-(2-amino-6-cyclopropylamino-9H-purin-9-yl)-2-cyclopentene-1-methanol O-Phenyl-(n-butoxy-L-alaninyl)-phosphate]
EC50 (HIV-1): 85 nM
EC50 (HIV-2): 170 nM
CC50 (CEM cells): 8230 nM
EC50 (MSV [1]): 620 nM
MCCMSV (MSV [2]): >4

COC(=O)C[C@H](NP(=O)(OC[C@@H]1C=C[C@H](n2cnc3c(NC4CC4)nc(N)nc32)C1)Oc1ccccc1)C(=O)OC (stereo partly drawn) [Compound 1589, (1S,4R)-4-(2-amino-6-cyclopropylamin9H-purin-9-yl)-2-cyclopentene-1-methanol O-[phenyl-(L-asparic acid dimethyl ester)]-phosphate]
EC50 (HIV-1): 1420 nM
EC50 (HIV-2): 1900 nM
CC50 (CEM cells): 44200 nM

COC(=O)[C@H](Cc1c[nH]c2ccccc12)NP(=O)(OC[C@@H]1C=C[C@H](n2cnc3c(NC4CC4)nc(N)nc32)C1)Oc1ccccc1 (stereo partly drawn) [Compound 1750, (1S,4R)-4-(2-amino-6-cyclopropylamino-9H-purin-9-yl)-2cyclopentene-1-methanol O-(phenylmethoxy-L-tryptophanyl phosphate)]
EC50 (HIV-1): 3000 nM
EC50 (HIV-2): 3670 nM
CC50 (CEM cells): 18300 nM

CC[C@H](C)[C@H](NP(=O)(OC[C@@H]1C=C[C@H](n2cnc3c(NC4CC4)nc(N)nc32)C1)Oc1ccccc1)C(=O)OC (stereo partly drawn) [Compound 1751, (1S,4R)-4-(2-amino-6-cyclpropylamino-9H purin-9-yl)-2-cyclopentene-1-methanol O-(phenylmethoxy-L-isoleucinyl phosphate)]
EC50 (HIV-1): 7000 nM
EC50 (HIV-2): 5330 nM
CC50 (CEM cells): 24200 nM

C[C@H](NP(=O)(OC[C@@H]1C=C[C@H](n2cnc3c(NC4CC4)nc(N)nc32)C1)Oc1ccccc1)C(=O)OC1CCCCCC1 (stereo partly drawn) [Compound 1752, (1S,4R)-4-(2-amino-6-cyclopropylamino-9-H-purin-9-yl)2-cyclopentene-1-methanol O-(phenyl (cycloheptanyl)oxyalaninyl phosphate)]
EC50 (HIV-1): 1300 nM
EC50 (HIV-2): 1050 nM
CC50 (CEM cells): 6320 nM

COC(=O)C(C)(C)NP(=O)(OC[C@@H]1C=C[C@H](n2cnc3c(NC4CC4)nc(N)nc32)C1)Oc1ccccc1 (stereo partly drawn) [Compound 1584, (1S,4R)-4-(2-amino-6-cyclopropylamino-9H-purin-9-yl)-2-cyclopentene-1-methanol O-[phenyl-(methoxy-α,adimethylglycinyl)]-phosphate]
EC50 (HIV-1): 67 nM
EC50 (HIV-2): 60 nM
CC50 (CEM cells): 8910 nM

COC(=O)[C@H](Cc1ccccc1)NP(=O)(OC[C@@H]1C=C[C@H](n2cnc3c(NC4CC4)nc(N)nc32)C1)Oc1ccccc1 (stereo partly drawn) [Compound 1585, (1,S,4R)-4-(2-amino-6-cyclopropylamino-9H-purin-9-yl)-2-cyclopentee-1-methain O-[phenyl-(methoxy-L-phenylalaninyl)]-phosphate]
EC50 (HIV-1): 1420 nM
EC50 (HIV-2): 2130 nM
CC50 (CEM cells): 36100 nM

COC(=O)CC[C@H](NP(=O)(OC[C@@H]1C=C[C@H](n2cnc3c(NC4CC4)nc(N)nc32)C1)Oc1ccccc1)C(=O)OC (stereo partly drawn) [Compound 1749, (1S,4R)-4-(2-amino6-cyclopropylamino-9H-purin-9-yl)-2-cyclopentene-1-methanol O-(phenyldimethoxy-L-glutamyl phosphate)]
EC50 (HIV-1): 3500 nM
EC50 (HIV-2): 5330 nM
CC50 (CEM cells): 36900 nM

C[C@H](NP(=O)(OC[C@@H]1C=C[C@H](n2cnc3c(NC4CC4)nc(N)nc32)C1)Oc1ccccc1)C(=O)OCc1ccccc1 (stereo partly drawn) [Compound 1582, (1S,4R)-4-(2-amino-6-cyclopropylamino-9H-purin-9-yl)-2-cyclopentene-1-methanol O-[phenyl-(enzoxy-L-alaninyl)]-phosphate]
EC50 (HIV-1): 83 nM
EC50 (HIV-2): 110 nM
CC50 (CEM cells): 12500 nM

COC(=O)[C@@H](C)NP(=O)(OC[C@@H]1C=C[C@H](n2cnc3c(NC4CC4)nc(N)nc32)C1)Oc1ccccc1 (stereo partly drawn) [Compound 1583, (1 S,4R)-4-(2-amino-6-cyclopropyiamino-9H-purin-9-yl)-2-cyclopentene-1-methanol O-[phenyl-(methoxy-D-alaninyl)]-phosphate]
EC50 (HIV-1): 1380 nM
EC50 (HIV-2): 4500 nM
CC50 (CEM cells): 64300 nM
